Values joined by “and” are separate entries in the source; they are usually repeats but may differ in a detail not shown here. Equal entries are not always repeated.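 Values below derive from 48-hour exposures of cells grown in 96-well plates, with endpoints linearly interpolated between the two concentrations bracketing the appropriate inhibition level. GI50: concentration for 50% inhibition of growth. TGI is the concentration that stops growth completely.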
Columns and labels:
Assay in all cases: NCI tumour cell line growth inhibition, 48 h
SNB-78 CNS = system: SNB-78 CNS
LXFL 529 NSCLC = system: LXFL 529 NSCLC
XF 498 CNS = system: XF 498 CNS
HOP-18 NSCLC = system: HOP-18 NSCLC
KM20L2 colon = system: KM20L2 colon
DMS 273 small cell lung = system: DMS 273 small cell lung
DMS 114 small cell lung = system: DMS 114 small cell lung
MDA-N = system: MDA-N
RXF-631 renal = system: RXF-631 renal

SMILES: CCC(=O)CC(=O)CCC(=O)Nc1cc(C)ccc1C
- TGI (SNB-78 CNS): > 100 µM
- TGI (LXFL 529 NSCLC): > 100 µM
- TGI (XF 498 CNS): > 100 µM
- TGI (HOP-18 NSCLC): > 100 µM
- TGI (KM20L2 colon): > 100 µM

SMILES: O=c1/c(=C/c2ccccc2[N+](=O)[O-])sc2nnc(-c3ccco3)n12
- TGI (SNB-78 CNS): 72.3 µM
- TGI (LXFL 529 NSCLC): 34.5 µM
- TGI (DMS 273 small cell lung): > 100 µM
- TGI (XF 498 CNS): 34.5 µM
- TGI (HOP-18 NSCLC): 57.8 µM
- TGI (DMS 114 small cell lung): 40.4 µM
- TGI (KM20L2 colon): > 100 µM

SMILES: Cc1c2n(c(=O)[nH]c1=O)C1OC(CO)C(O2)C1O (stereo unspecified)
- TGI (SNB-78 CNS): > 100 µM
- TGI (LXFL 529 NSCLC): > 100 µM
- TGI (DMS 273 small cell lung): > 100 µM
- TGI (DMS 114 small cell lung): > 100 µM
- TGI (KM20L2 colon): > 100 µM

SMILES: c1ccc2cc(-c3cc4ccccc4s3)ccc2c1
- TGI (SNB-78 CNS): > 100 µM
- TGI (DMS 273 small cell lung): > 100 µM
- TGI (XF 498 CNS): > 100 µM
- TGI (HOP-18 NSCLC): > 100 µM
- TGI (DMS 114 small cell lung): > 100 µM
- TGI (KM20L2 colon): > 100 µM

SMILES: CC1(C)S[C@@H]2[C@H](NC(=O)C3(N)CCCCC3)C(=O)N2[C@H]1C(=O)O
- TGI (MDA-N): > 100 µM

SMILES: O=C1c2ccccc2C(=O)N1CCn1ccc(NC(c2ccccc2)(c2ccccc2)c2ccccc2)nc1=O
- TGI (SNB-78 CNS): > 100 µM
- TGI (RXF-631 renal): 40.4 µM
- TGI (LXFL 529 NSCLC): > 100 µM
- TGI (DMS 273 small cell lung): 36.6 µM
- TGI (XF 498 CNS): 30.3 µM
- TGI (HOP-18 NSCLC): 42.6 µM
- TGI (DMS 114 small cell lung): 50 µM
- TGI (KM20L2 colon): 27.5 µM

SMILES: O=C(/C=C/c1ccccc1)CCC1C(=O)c2ccccc2C1=O
- TGI (MDA-N): > 100 µM

SMILES: O=C(Nc1ccn(CCO)c(=O)n1)c1ccccc1
- TGI (SNB-78 CNS): > 100 µM
- TGI (RXF-631 renal): > 100 µM
- TGI (LXFL 529 NSCLC): > 100 µM
- TGI (DMS 273 small cell lung): > 100 µM
- TGI (HOP-18 NSCLC): > 100 µM
- TGI (DMS 114 small cell lung): > 100 µM
- TGI (KM20L2 colon): > 100 µM

SMILES: CC1(C)COC(C2(C)C(=O)C=C(c3ccccc3)c3ccccc32)=N1 (stereo unspecified)
- TGI (RXF-631 renal): > 100 µM
- TGI (LXFL 529 NSCLC): > 100 µM
- TGI (HOP-18 NSCLC): > 100 µM
- TGI (DMS 114 small cell lung): > 100 µM
- TGI (KM20L2 colon): > 100 µM

SMILES: CSc1nc(=O)n(CCC#N)nc1SC
- TGI (MDA-N): 51.4 µM

SMILES: NC(=S)N/N=C(\CC1OC(=O)c2ccccc21)c1ccc(Cl)cc1 (stereo unspecified)
- TGI (SNB-78 CNS): > 100 µM
- TGI (RXF-631 renal): 74.1 µM
- TGI (LXFL 529 NSCLC): > 100 µM
- TGI (DMS 273 small cell lung): > 100 µM
- TGI (XF 498 CNS): > 100 µM
- TGI (DMS 114 small cell lung): 75 µM
- TGI (KM20L2 colon): > 100 µM

SMILES: COc1cccc(C2CC(C)(O)Oc3cc4c(cc32)OCO4)c1O (stereo unspecified)
- TGI (MDA-N): 10.4 µM

SMILES: O=C1CCC(Cl)=CC2CCCN12 (stereo unspecified)
- TGI (SNB-78 CNS): > 100 µM
- TGI (LXFL 529 NSCLC): > 100 µM
- TGI (DMS 114 small cell lung): > 100 µM
- TGI (KM20L2 colon): > 100 µM

SMILES: CC1(C)CC(=O)C(C=NC(=S)c2ccccc2)=C(O)C1
- TGI (MDA-N): > 100 µM

SMILES: O=C(CCN(C(=O)O)S(=O)(=O)c1ccc(NC(=O)c2ccccc2)cc1)Nc1ccccc1
- TGI (SNB-78 CNS): > 100 µM
- TGI (RXF-631 renal): > 100 µM
- TGI (LXFL 529 NSCLC): > 100 µM
- TGI (DMS 273 small cell lung): > 82.4 µM
- TGI (XF 498 CNS): > 100 µM
- TGI (HOP-18 NSCLC): > 100 µM
- TGI (DMS 114 small cell lung): > 68.5 µM
- TGI (KM20L2 colon): > 100 µM

SMILES: C(=NCCN1CCOCC1)=NC1CCCCC1
- TGI (MDA-N): > 100 µM

SMILES: Clc1ccc2c(c1)[nH]c1c2nc2ccccn21
- TGI (SNB-78 CNS): 83.9 µM and 61.6 µM
- TGI (RXF-631 renal): > 100 µM and 69.2 µM
- GI50 (LXFL 529 NSCLC): 35.9 µM and 16.2 µM
- TGI (LXFL 529 NSCLC): > 100 µM and 30 µM
- GI50 (XF 498 CNS): 35.9 µM and 16 µM
- TGI (XF 498 CNS): 89.1 µM and 29.8 µM
- GI50 (HOP-18 NSCLC): 41.9 µM
- TGI (HOP-18 NSCLC): > 100 µM
- TGI (KM20L2 colon): 74.9 µM and 28.7 µM

SMILES: N.N.N.N.O=C([O-])CCl.O=C([O-])CCl.[Co+3].[O-][Cl+3]([O-])([O-])[O-]
- GI50 (SNB-78 CNS): > 100 µM
- TGI (SNB-78 CNS): > 100 µM
- GI50 (LXFL 529 NSCLC): > 100 µM
- TGI (LXFL 529 NSCLC): > 100 µM
- GI50 (KM20L2 colon): > 100 µM
- TGI (KM20L2 colon): > 100 µM

SMILES: Cc1ccc(S(=O)(=O)Nc2ccccc2C=O)cc1
- TGI (MDA-N): 42.9 µM

SMILES: O=C(Nc1ccc2ncccc2c1)Nc1ccc2ncccc2c1
- TGI (MDA-N): > 100 µM

SMILES: CCC12CCCN(Cc3ccccc3)C1c1c(n(C)c3ccccc13)CC2 (stereo unspecified)
- TGI (LXFL 529 NSCLC): > 253 µM
- TGI (DMS 273 small cell lung): > 253 µM
- TGI (KM20L2 colon): > 253 µM

SMILES: OC(CC1SCCCS1)c1ccccc1 (stereo unspecified)
- TGI (LXFL 529 NSCLC): > 100 µM
- TGI (DMS 273 small cell lung): > 100 µM
- TGI (XF 498 CNS): > 100 µM
- TGI (HOP-18 NSCLC): > 100 µM
- TGI (DMS 114 small cell lung): > 100 µM
- TGI (KM20L2 colon): > 100 µM

SMILES: CC(C)N(C(=O)C12C3C4C1C1C4(C#N)C3C12C#N)C(C)C (stereo unspecified)
- TGI (SNB-78 CNS): > 100 µM
- TGI (RXF-631 renal): > 100 µM
- TGI (LXFL 529 NSCLC): > 100 µM
- TGI (XF 498 CNS): > 100 µM
- TGI (HOP-18 NSCLC): > 100 µM
- TGI (DMS 114 small cell lung): > 100 µM
- TGI (KM20L2 colon): > 100 µM

From PubChem BioAssay (NCI)
